Data set [1] concerns Staphylococcus aureus. Nature of the data set: Antibacterial activity against Staphylococcus aureus ATCC 29213 incubated for 24 hrs by two fold serial dilution method. Particulars: ATCC 29213, 24 h. Format: functional.
The next data set deals with Escherichia coli. Nature of the data set: Antibacterial activity against Escherichia coli incubated for 24 hrs by two fold serial dilution method. Format: functional.
Data set [2] relates to Klebsiella pneumoniae. Nature of the data set: Antibacterial activity against Klebsiella pneumoniae incubated for 24 hrs by two fold serial dilution method. The format is functional.
For data set [3], the system named is Acinetobacter baumannii. Nature of the data set: Antibacterial activity against Acinetobacter baumannii incubated for 24 hrs by two fold serial dilution method. Format: functional.
Data set [4] concerns Enterococcus faecalis. In words: Antibacterial activity against Enterococcus faecalis incubated for 24 hrs by two fold serial dilution method. The format is functional.
The next data set relates to Pseudomonas aeruginosa. Nature of the data set: Antibacterial activity against Pseudomonas aeruginosa incubated for 24 hrs by two fold serial dilution method. Format: functional.
Data set [5] concerns Staphylococcus aureus. Nature of the data set: Antibacterial activity against methicillin-resistant Staphylococcus aureus N315 incubated for 24 hrs by two fold serial dilution method. Particulars: N315, 24 h. Format: functional.
For data set [6], the system named is Enterococcus faecalis. Nature of the data set: Potency index, ratio of MIC for norfloxacin to test compound MIC for antibacterial activity against Enterococcus faecalis. The format is functional.
In data set [7] the target is T1, Albumin (Homo sapiens, UniProt P02768). In words: Ratio of binding affinity for HSA assessed as binding constant at 298K in presence of Mg2+ ion to binding affinity to HSA at 298K by spectrofluorimetric based Scatchard method. The settings on record: isolated protein. Format: ADME.
T1 sequence (P02768 whole entry): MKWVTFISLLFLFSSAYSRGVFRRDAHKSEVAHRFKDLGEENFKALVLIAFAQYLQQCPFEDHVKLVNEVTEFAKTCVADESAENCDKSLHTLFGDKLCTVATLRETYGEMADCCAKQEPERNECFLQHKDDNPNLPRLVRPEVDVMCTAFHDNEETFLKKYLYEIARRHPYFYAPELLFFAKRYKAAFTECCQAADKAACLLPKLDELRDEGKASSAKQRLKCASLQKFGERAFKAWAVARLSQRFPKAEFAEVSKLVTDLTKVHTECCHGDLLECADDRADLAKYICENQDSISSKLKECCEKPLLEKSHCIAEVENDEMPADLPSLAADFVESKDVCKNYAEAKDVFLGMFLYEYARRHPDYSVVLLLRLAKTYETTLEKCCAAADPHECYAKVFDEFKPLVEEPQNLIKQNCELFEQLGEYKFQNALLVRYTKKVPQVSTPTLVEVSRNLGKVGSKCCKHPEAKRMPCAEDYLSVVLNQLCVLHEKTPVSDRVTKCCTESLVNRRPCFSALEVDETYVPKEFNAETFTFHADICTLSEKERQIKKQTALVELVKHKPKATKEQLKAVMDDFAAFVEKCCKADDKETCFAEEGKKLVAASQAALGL
The target of data set [8] is T1, Albumin. Nature of the data set: Binding affinity to HSA assessed as binding constant at 298K in presence of Ca2+ ion by spectrofluorimetric based Scatchard method. Format: ADME. The settings on record: isolated protein.
In data set [9] the test system is DNA. In words: Binding affinity to methicillin-resistant Staphylococcus aureus N315 DNA by neutral red dye based UV-visible spectrophotometric method. The format is nucleic-acid assay. Particulars: Staphylococcus aureus subsp. aureus N315.
Data set [10] has as its system Staphylococcus aureus. In words: Antibacterial activity against methicillin-resistant Staphylococcus aureus N315 assessed as reduction in FemB gene expression incubated for 3 hrs by qRT-PCR analysis. Format: functional, organism-based. In general terms: Real-time PCR tracks product formation cycle by cycle.
In data set [11] the target is T1, Albumin. In words: Binding affinity to HSA assessed as quenching constant at 313 K by spectrofluorimetric analysis. Format: ADME. Particulars: isolated protein.
The target of data set [12] is T1, Albumin. Nature of the data set: Binding affinity to HSA assessed as binding constant at 313 K by spectrofluorimetric based Scatchard method. The format is ADME. Particulars: isolated protein.
Data set [13] deals with T1, Albumin. In words: Binding affinity to HSA assessed as quenching constant at 300 K by spectrofluorimetric analysis. The format is ADME. The settings on record: isolated protein.
Data set [14] concerns DNA. Nature of the data set: Binding affinity to methicillin-resistant Staphylococcus aureus DNA assessed as reduction in neutral red binding to DNA by UV-visible spectrophotometric method. The format is nucleic-acid assay.
The nature of data set [15]: Cytotoxicity activity against human BEAS2B cells assessed as cell viability at 64 ug/ml incubated for 24 hrs by MTT assay relative to control. Format: cell-based. The settings on record: BEAS-2B cells, read-out: Activity. (In general: Formazan colour is commonly taken as a measure of viable cells.)
The target in data set [16] is T1, Albumin. Nature of the data set: Binding affinity to HSA assessed as Stem-Volmer quenching constant at 300 K by spectrofluorimetric analysis. The format is ADME. The settings on record: isolated protein.
Data set [17] concerns the target T1, Albumin. Nature of the data set: Binding affinity to HSA assessed as binding constant at 298K by spectrofluorimetric based Scatchard method. The format is ADME. Particulars: isolated protein.
In data set [18] the test system is Staphylococcus aureus. Nature of the data set: Antibacterial activity against methicillin-resistant Staphylococcus aureus N315 at 0.5 times MIC measured over 6 passages. The format is functional, organism-based.
Data set [19] addresses T1, Albumin. In words: Binding affinity to HSA assessed as quenching constant at 290 K by spectrofluorimetric analysis. The format is ADME. Particulars: isolated protein.
Data set [20] is described as follows: Cytotoxicity activity against human A549 cells assessed as cell viability at 2 to 64 ug/ml incubated for 24 hrs by MTT assay relative to control. The format is cell-based. Particulars: read-out: Activity.
For data set [21], the target named is T1, Albumin. In words: Binding affinity to HSA assessed as Stem-Volmer quenching constant at 290 K by spectrofluorimetric analysis. Format: ADME. Particulars: isolated protein.
For data set [22], the system named is Staphylococcus aureus. Nature of the data set: Induction of membrane permeabilization in methicillin-resistant Staphylococcus aureus N315 assessed as increase in fluorescence intensity at 12 times MIC measured within 70 mins by propidium iodide staining based fluorescence assay. The format is functional, organism-based.
The test system of data set [23] is DNA. Nature of the data set: Binding affinity to methicillin-resistant Staphylococcus aureus N315 DNA assessed as hyperchromic effect by neutral red dye based UV-visible spectrophotometric method. Format: nucleic-acid assay. The settings on record: Staphylococcus aureus subsp. aureus N315.
The target in data set [24] is T1, Albumin. In words: Binding affinity to HSA assessed as binding constant at 300 K by spectrofluorimetric based Scatchard method. Particulars: isolated protein. Format: ADME.
Data set [25] has as its system Staphylococcus aureus. Nature of the data set: Antibacterial activity against methicillin-resistant Staphylococcus aureus N315 assessed as reduction in GyrB gene expression incubated for 3 hrs by qRT-PCR analysis. Format: functional, organism-based.
In data set [26] the test system is Staphylococcus aureus. Nature of the data set: Antibacterial activity against methicillin-resistant Staphylococcus aureus N315 assessed as reduction in MecA gene expression incubated for 3 hrs by qRT-PCR analysis. The format is functional, organism-based.
Data set [27] has as its target T1, Albumin. In words: Binding affinity to HSA assessed as binding constant at 298K in presence of Mg2+ ion by spectrofluorimetric based Scatchard method. The format is ADME. Particulars: isolated protein.
In data set [28] the target is T1, Albumin. In words: Binding affinity to HSA assessed as binding constant at 290 K by spectrofluorimetric based Scatchard method. Format: ADME. The settings on record: isolated protein.
Data set [29] has as its target T1, Albumin. In words: Binding affinity to HSA assessed as effective quenching constant at 300 K by spectrofluorimetric based Stern-Volmer method. Format: ADME. The settings on record: isolated protein.
In data set [30] the target is T1, Albumin. Nature of the data set: Ratio of binding affinity for HSA assessed as binding constant at 298K in presence of Ca2+ ion to binding affinity to HSA at 298K by spectrofluorimetric based Scatchard method. Format: ADME. The settings on record: isolated protein.
Data set [31] deals with T1, Albumin. In words: Binding affinity to HSA assessed as effective quenching constant at 290 K by spectrofluorimetric based Stern-Volmer method. Particulars: isolated protein. The format is ADME.
In data set [32] the target is T1, Albumin. Nature of the data set: Binding affinity to HSA assessed as effective quenching constant at 313 K by spectrofluorimetric based Stern-Volmer method. Particulars: isolated protein. The format is ADME.
The target in data set [33] is T1, Albumin. In words: Binding affinity to HSA assessed as Stem-Volmer quenching constant at 313 K by spectrofluorimetric analysis. The format is ADME. Particulars: isolated protein.
Data set [34] has as its system Klebsiella pneumoniae. Nature of the data set: Potency index, ratio of MIC for clinafloxacin to test compound MIC for antibacterial activity against Klebsiella pneumoniae. The format is functional.
Data set [35] has as its system Acinetobacter baumannii. Nature of the data set: Potency index, ratio of MIC for norfloxacin to test compound MIC for antibacterial activity against Acinetobacter baumannii. The format is functional.

Molecules are shown by their SMILES. In brackets after ≈: the same amount, converted by molar mass. Activity calls are given as the source filed them. No cut-off for these calls is given here.

`CC(=O)/C(=C/c1cn(CC(=O)N2CCN(Cc3ccc(F)cc3)CC2)c2ccccc12)n1cc([N+](=O)[O-])nc1C`: the MIC was determined as 8 µg/mL (≈ 14.7 µM) with Staphylococcus aureus [1]; 16 µg/mL (≈ 29.4 µM) against Escherichia coli; 16 µg/mL (≈ 29.4 µM) in the data set on Klebsiella pneumoniae [2]; 32 µg/mL (≈ 58.8 µM) in the data set on Acinetobacter baumannii [3]; 2 µg/mL (≈ 3.67 µM) with Enterococcus faecalis [4]; 32 µg/mL (≈ 58.8 µM) in the data set on Pseudomonas aeruginosa. In addition, the MIC in the data set on Staphylococcus aureus [5] turned out to be 32 µg/mL (≈ 58.8 µM). For the same compound, the Ratio in the data set with Enterococcus faecalis [6] is recorded as 2.

As to `CC(=O)/C(=C/c1cn(CC(=O)N2CCCCC2)c2ccccc12)n1cc([N+](=O)[O-])nc1C`, the Ratio on Albumin [7] came out at 103%; at Albumin [30], 124%. Besides, the Kb at Albumin [8] is 5.729 ×10⁴ L/mol; at Albumin [12], 4.95 ×10⁴ L/mol; at Albumin [17] it was 4.624 ×10⁴ L/mol; at Albumin [24], 5.73 ×10⁴ L/mol; on Albumin [27], 4.766 ×10⁴ L/mol; at Albumin [28], 5.88 ×10⁴ L/mol. The Activity result in the data set on DNA [9] was “Dose-dependent effect”. The compound further returned a K in the data set on DNA [9] of 3.45 ×10⁵ L/mol. The result in the data set with Staphylococcus aureus [10], in the data set with DNA [14], in the data set on Staphylococcus aureus [18], in the data set with Staphylococcus aureus [22], with DNA [23] and in the data set on Staphylococcus aureus [25] was Active. Further, in the data set on Staphylococcus aureus [26], the outcome was Active. For the same compound, the MIC in the data set with Staphylococcus aureus [1] came out at 128 µg/mL (≈ 294 µM); in the data set on Escherichia coli, 1 µg/mL (≈ 2.3 µM); in the data set on Klebsiella pneumoniae [2], 8 µg/mL (≈ 18.4 µM); against Acinetobacter baumannii [3], 128 µg/mL (≈ 294 µM); against Enterococcus faecalis [4] it was 32 µg/mL (≈ 73.5 µM); in the data set with Pseudomonas aeruginosa, 128 µg/mL (≈ 294 µM). Further, inhibition of growth against Staphylococcus aureus [5] (MIC) required 1 µg/mL (≈ 2.3 µM). Moreover, the Kq is 0.99 ×10¹³ L/mol/s at Albumin [11]; 1.19 ×10¹³ L/mol/s on Albumin [13]; 1.27 ×10¹³ L/mol/s on Albumin [19]; 79800 M⁻¹ at Albumin [29]; 132000 M⁻¹ at Albumin [31]; 56900 M⁻¹ at Albumin [32]. The viability at 24 h, 64 ug/ml in [15] worked out at 74%. Moreover, the KSV is reported as 7.63 ×10⁴ L/mol at Albumin [16], 8.14 ×10⁴ L/mol at Albumin [21] and 6.35 ×10⁴ L/mol at Albumin [33]. For the same compound, the viability at 24 h in [20] was greater than 75%.

Regarding `CCN(CC)C(=O)Cn1cc(/C=C(/C(C)=O)n2cc([N+](=O)[O-])nc2C)c2ccccc21`, the MIC against Staphylococcus aureus [1] came out at 128 µg/mL (≈ 302 µM); against Escherichia coli it was 16 µg/mL (≈ 37.8 µM); against Klebsiella pneumoniae [2], 8 µg/mL (≈ 18.9 µM); against Acinetobacter baumannii [3], 1 µg/mL (≈ 2.36 µM); against Enterococcus faecalis [4] it was 64 µg/mL (≈ 151 µM); with Pseudomonas aeruginosa it was 16 µg/mL (≈ 37.8 µM). In the data set on Staphylococcus aureus [5], this compound returned an MIC of 16 µg/mL (≈ 37.8 µM). The values for the Ratio in the data set on Klebsiella pneumoniae [34] and with Acinetobacter baumannii [35] were 4 and 8, respectively.

The term MIC denotes the lowest concentration that inhibits growth of the organism.
